For `COc1ccc(C(OCC2OC(n3cc(C)c(=O)[nH]c3=O)CC2O[Si](C)(C)C(C)(C)C)(c2ccccc2)c2ccc(OC)cc2)cc1` (stereo not drawn), the melting point was 214 °C.
`NC(=O)CCCCCc1nccc(NC(N)=NCC(F)(F)F)n1` gave a melting point of 179 to 181 °C.
In the case of `COc1cc(C(C)C)c2c(c1)S(=O)(=O)N(COC(=O)c1c(C)nn(-c3ccccc3)c1C)C2=O`, the melting point is reported as 167 to 169 °C.
For `O=C(CCl)Nc1ccccn1`, the melting point was 114 to 117 °C.
`NNC(=S)c1cc(F)c2ncc(C(=O)NCc3ccc(Cl)cc3)c(O)c2c1` gave a melting point of 317 to 319 °C.
Work on `CCCCCCCCCCCCCCCCCCOc1cc(OCCCOc2ccc(O)cc2)cc(C(=O)O)c1` yielded a melting point of 92 to 95 °C.
For `COc1nc2ccccc2cc1/C=C/c1cc(CN2CCN(S(C)(=O)=O)CC2)ccc1[N+](=O)[O-]`, the melting point was 156 to 157 °C.
With `Cn1nc(-c2ccc3ccccc3c2)n(C)c1=S` the melting point was 173 to 175 °C.
With `CC(C)(C)c1cc(OCCCCCCc2nnn[nH]2)cc(C(C)(C)C)c1O` the melting point was 128 to 131 °C.
In the case of `CC(C)(C)c1cccc(S(=O)(=O)n2c(Cc3ccc(C(=O)O)s3)cc3cc(C(F)(F)F)ccc32)c1`, the melting point is reported as 110 °C.
With `COCc1cc(=O)c(Oc2ccc(F)cc2F)c(-c2ccc(S(C)(=O)=O)cc2)o1` the melting point was 124 °C.
For `NC(=O)Cn1c(-c2ccc(Cl)cc2)nc2cccnc21`, the melting point was 270 to 271 °C.
For `C[C@H](c1ccccc1)N1C(=O)c2cccc([N+](=O)[O-])c2C1=O`, the melting point was 115 to 117 °C.
With `CC1(O)CCC2C3CCC4=CC(=O)CCC4C3C(=CF)CC21C` (stereo not drawn) the melting point was 127 to 131 °C.
`O=C(Nc1n[nH]c(=S)s1)N[C@@H](Cc1ccccc1)C(=O)N1CCN(c2ccccc2)CC1` showed a melting point of 210 to 211 °C.
Compound `CCc1nc2c(cnn2CC)c(NC2CCOCC2)c1CNC(=O)c1cccc(C(=O)NCc2ccc(F)c(-c3cccc(CN(C)CCN(C)C)c3)c2)c1` has a melting point of 126 to 129 °C.
For `COc1ccc(-c2cc(COCCc3cccc(NS(=O)(=O)C(F)(F)F)c3)ccc2F)cc1`, the melting point was 70 to 71 °C.
`CC(C)(CO)NS(=O)(=O)c1cccc(-c2cc(-c3nc(-c4ccc(C(F)(F)F)cc4)cc(C(F)(F)F)n3)ccn2)c1` showed a melting point of 221 °C.
Compound `C#CCOc1nc(-n2nc3ccc(Cl)cn3c2=O)c(F)cc1C#N` has a melting point of 207 to 209 °C.
With `COC(=O)/C=C/n1cnc2ccc(SC)cc2c1=O` the melting point was 170 °C.
Compound `OC(CNCCC1c2ccccc2COc2ccccc21)COc1ccccc1` (stereo not drawn) has a melting point of 136 to 138 °C.
With `CC(C)=CCOc1ccc2cc(C(C)C(=O)O)ccc2c1` (stereo not drawn) the melting point was 97 to 100 °C.
Work on `CCOc1ccccc1C1(Cl)C(=O)Nc2ccc(Cl)cc21` (stereo not drawn) yielded a melting point of 198 °C.
With `CC1(C)CC2(CC(C)(C)N1c1nc(Cl)nc(Cl)n1)OCCO2` the melting point was 169 to 172 °C.
`C=CCc1cc(C(=O)OCC)ccc1NC(C)=O` showed a melting point of 127 to 128 °C.
Compound `CC(=O)OCC(=O)Nc1cccc(N2CCCCC2)c1C#N` has a melting point of 90 to 92 °C.
`CS(=O)c1ccc(C(=O)O)cc1[N+](=O)[O-]` (stereo not drawn) showed a melting point of 238 to 239 °C.
With `Nc1nc2c(s1)CC(NC(=O)[C@@H]1CCCN1C(=O)CNC(c1ccccc1)(c1ccccc1)c1ccccc1)CC2` (stereo partly drawn) the melting point was 125 to 128 °C.
Compound `COc1cc(C(=O)N(C(C)C)C(C)C)ccc1OCCCCCOc1ccc(C=NN)cc1` has a melting point of 112 to 114 °C.
Compound `CCc1oc(C(c2ccccc2)c2ccccc2)nc1CC1CCc2c(cccc2OCC(=O)O)C1` (stereo not drawn) has a melting point of 150 to 152 °C.
With `CCCCCN1C(=O)C2(COc3cc(F)c(F)cc32)c2ccccc21` (stereo not drawn) the melting point was 48 to 50 °C.
`Cc1ccc(N=C=C2C=CC=CN2)c(C)c1[N+](=O)[O-]` showed a melting point of 114 to 116 °C.
`O=C(c1ccccc1)N1CCc2cc(S(=O)(=O)N3CC(c4ccccc4)NC3=O)ccc21` (stereo not drawn) gave a melting point of 127 °C.
In the case of `COc1nc(C(F)(F)F)cc(=O)n1-c1cc(OC(C)C)c(Cl)cc1F`, the melting point is reported as 117 to 119 °C.
Work on `C=CCCC(C#N)(C#N)Cc1ccc(OCC=C)cc1` yielded a melting point of 77.7 °C.
For `CS(=O)(=O)CS(=O)(=O)OCCCl`, the melting point was 60 to 62 °C.
In the case of `CC(C)COC(=O)C(=O)c1csc(N)n1`, the melting point is reported as 105 to 108 °C.
`COC(=O)c1ccc2ccc(C(C)=O)cc2c1` gave a melting point of 103 to 105 °C.

Reference: a melting point compilation (Tetko et al.; mined from patent text by program, amines drawn as free bases though some values may be those of a salt)
